Data on three molecules can be found in patent US20090105172A1, “Stabilized Aptamers to PSMA and Their Use as Prostate Cancer Therapeutics” (priority 2005, published 2009).

The conditions of series [1]: docetaxel in combination with prednisone (cited clinical trial, not the aptamer), every three weeks; cited from earlier work.
Series [2] can be described thus: Plasma stability time course assay. The format is in vitro ADME. To be noted: 95% human plasma, 37° C. As for the experimental part: Plasma stability of each construct was measured using a plasma stability time course assay over 0, 1, 3, 10, 30, and 100 hours. A reaction was set up for each aptamer tested in an eppendorf tube using 95% human plasma (20 μl per time point), an appropriate concentration of aptamer (determined by the highest predicted dosing level (CMax)), and a sufficient amount of spiked 5′-end labeled aptamer such that a 1:10 dilution of the reaction will be over 1000 cpm, brought to total volume with 1×PBS. When assembling the reaction, the plasma was added last, and the reactions were immediately added to a 37° C. heat block. A reaction for each aptamer tested containing 1×PBS instead of plasma was used as a 0 hour time point. At each designated time point, 20 μl was withdrawn from each reaction and added to an appropriately labeled eppendorf tube containing 200 μl of formamide loading dye, and was immediately snap frozen in liquid nitrogen and stored at −20° C. After all the samples were collected 20 μl of each plasma sample/loading dye was aliquoted into separate tubes, and 2 μl of 1% SDS was added to each tube (final SDS concentration 0.1%). The samples containing 0.1% SDS were heated at 90° C. for 10-15 minutes. […]
The percentage of the parent aptamer remaining for each time-point was determined by quantifying the parent aptamer band and dividing by the total counts in the lane. […]

In another series the target is PSMA NAALADase activity (Homo sapiens, UniProt Q04609). Description: NAALADase inhibition assay. The format is biochemical. As to conditions: relative to parent. As for the experimental part: These point mutant constructs were assessed for activity in terms of inhibition of PSMA NAALADase activity. The NAALADase assay was performed in 96 well format. PSMA aptamers were serially diluted in 1× reaction buffer (40 mM Tris-HCl, pH 7.4, 0.1 mM ZnSO4, 0.1 mg/in L BSA) in a standard 96 well plate to be tested at a final concentration range from 30 pM to 1 μM. The enzyme was prepared by diluting 30 μL of 100 nM PSMA into 8 mL of reaction buffer, and kept cool on ice. The substrate was prepared by adding 19 μl of NAAG [Glutamate-3,4-^3H], 50.8 Ci/mmol, 19.7 μM (Perkin-Elmer, Wellesley, Mass., NET1082) into 2.2 mL of reaction buffer.
Following preparation of all reagents, 4 μl of each serially diluted aptamer was added to a separate 96 well plate (the reaction plate). 76 μl of diluted enzyme was added to the corresponding wells containing aptamer. 80 μl of reaction buffer was added to one column of wells to serve as a background control. The diluted substrate and reaction plate were then moved to a room at 37° C. and allowed to equilibrate for 10 minutes. After temperature equilibration, 20 μl of the prepared substrate was added to each well using a 12 channel pipet for a final volume of 100 μl/well, and a final concentration of […] enzyme and 30 nM substrate per well. A column of wells containing enzyme and substrate only was used as a high control. The aptamer/enzyme/substrate reaction was incubated at 37° C. for 15 minutes, and stopped by the addition of 100 μl of quench buffer (100 mM sodium phosphate, pH 7.4, 2 mM EDTA).
To separate the cleavage products, […] and Glutamate, from the substrate, an AG 1-X8, 200-400 mesh, formate resin (BioRad, Hercules, Calif., # 140-1454) was used. The resin was prepared by forming a 1:1 slurry in H2O, and adding 140 μl per 96 well using a Multiscreen filter plate (Multiscreen, 1.2 μm filter plates (Millipore, Billerica, Mass., # MABVN1250)). […] The plate was sealed and read using a Packard Topcount Microplate Scintillation Counter. […]

Another series relates to PC-3 cells (PSMA−). Nature of the series: FACS binding assay, control cell line. The format is cell-based. As to conditions: FACS histogram. As for the experimental part:
To prepare aptamers for the FACS assay, PSMA aptamers were serially diluted (0-1 uM) in FACS buffer (1×DPBS w/Ca^++/Mg^++ (Gibco, Carlsbad, Calif.) supplemented with 10 mg/mL salmon sperm DNA & 0.2% Na Azide), in a V-bottom 96 well plate, at the concentrations to be tested. LNCaP and PC-3 cells (ATCC, Manassas, Va.) were harvested with trypsin, and 200,000 cells/well were counted, washed once with 1×DPBS (with Ca^++ and Mg^+) and resuspended in 200 μl of FACS Buffer. The 200 μl of cells in FACS buffer were added to individual wells of a new 96 well plate, pelleted by centrifugation (1300 rpm for 5 minutes), and resuspended in 100 μl of the appropriate concentration of diluted aptamer. FACS buffer, a-PSMA antibody (3C6) (Northwest Biotherapeutics, Bothell, Wash., Cat #: 60-5002) and an irrelevant fluorescein isothiocyanate (“FITC”) mouse IgG1 isotype control antibody (BD Pharmingen, San Diego, Calif., Cat#: 554679) were used as controls. The wells of aptamer/cell mixture were incubated at room temperature for 20-30 minutes. […]
(§1) Cell samples were analyzed on a FACS Scan machine (Becton Dickinson, San Jose, Calif.) under the following parameters: FSC/SSC, FL-1/FSC, FL-3/FSC. The unstained and/or isotype controls were used to establish gating parameters, and the data was analyzed using Cell Quest Pro software version 5.1.1 (Becton Dickinson Immunocytometry Systems, San Jose, Calif.).

Another series has as its system LNCaP cells (PSMA+). Nature of the series: LNCaP FACS binding assay with fluorescein-labeled aptamers. The format is cell-based. As to conditions: FACS histogram. The procedure:
To prepare aptamers for the FACS assay, PSMA aptamers were serially diluted (0-1 uM) in FACS buffer (1×DPBS w/Ca^++/Mg^++ (Gibco, Carlsbad, Calif.) supplemented with 10 mg/mL salmon sperm DNA & 0.2% Na Azide), in a V-bottom 96 well plate, at the concentrations to be tested. LNCaP and PC-3 cells (ATCC, Manassas, Va.) were harvested with trypsin, and 200,000 cells/well were counted, washed once with 1×DPBS (with Ca^++ and Mg^+) and resuspended in 200 μl of FACS Buffer. The 200 μl of cells in FACS buffer were added to individual wells of a new 96 well plate, pelleted by centrifugation (1300 rpm for 5 minutes), and resuspended in 100 μl of the appropriate concentration of diluted aptamer. FACS buffer, a-PSMA antibody (3C6) (Northwest Biotherapeutics, Bothell, Wash., Cat #: 60-5002) and an irrelevant fluorescein isothiocyanate (“FITC”) mouse IgG1 isotype control antibody (BD Pharmingen, San Diego, Calif., Cat#: 554679) were used as controls. The wells of aptamer/cell mixture were incubated at room temperature for 20-30 minutes.
After incubation, 180 μl of FACS buffer (plus 10 mg/mL ssDNA, and 0.2% Na Azide) was added to each well to quench the reaction and cells were pelleted by centrifugation.
Anti-fluorescein/Oregon Green®, rabbit IgG fraction, Alexa Fluor® 488 conjugate (Molecular Probes, Eugene, Oreg., Cat#: A11090) was diluted 1:100 in FACS buffer (100 μl/well) as the secondary antibody for the aptamer-FITC conjugates and FITC-mouse IgG isotype control. FITC Rat anti-mouse IgG1 (A85-1) (BD Pharmingen, San Diego, Calif., Cat#: 553443) was diluted in 1:100 in FACS Buffer as the secondary for the α-PSMA antibody. After centrifugation, the cell pellets were resuspended in 100 μl of the appropriate diluted secondary antibody, and incubated 10 minutes at room temperature. After incubation, 180 μl of FACS buffer was added to each well to quench the reaction, and cells were pelleted by centrifugation.
A tertiary antibody which recognizes the Alexa Fluor® 488 goat anti-rabbit IgG was prepared to further amplify the Alexa Fluor signal. Alexa Fluor® 488 goat anti-rabbit IgG (H+ L) (Molecular Probes, Eugene, Oreg., Cat#: A11034) was diluted 1:100 in FACS buffer, and the pelleted cells were resupsended in 100 μl of the tertiary antibody and incubated for 10 minutes at room temperature. […]
as §1

Strand notation (5' to 3'): a small letter for the sugar, then the base; units joined by * are phosphorothioate-linked, units joined directly phosphodiester-linked; [ ] holds rarer units or linkages, { } end groups; capitals alone tell only the bases. [invdT] = inverted (3'-3') thymidine; d = 2'-deoxy (DNA); m = 2'-O-methyl; f = 2'-fluoro

PSMA NAALADase activity, sequence (Q04609 with tags, fused parts or gaps limits assumed): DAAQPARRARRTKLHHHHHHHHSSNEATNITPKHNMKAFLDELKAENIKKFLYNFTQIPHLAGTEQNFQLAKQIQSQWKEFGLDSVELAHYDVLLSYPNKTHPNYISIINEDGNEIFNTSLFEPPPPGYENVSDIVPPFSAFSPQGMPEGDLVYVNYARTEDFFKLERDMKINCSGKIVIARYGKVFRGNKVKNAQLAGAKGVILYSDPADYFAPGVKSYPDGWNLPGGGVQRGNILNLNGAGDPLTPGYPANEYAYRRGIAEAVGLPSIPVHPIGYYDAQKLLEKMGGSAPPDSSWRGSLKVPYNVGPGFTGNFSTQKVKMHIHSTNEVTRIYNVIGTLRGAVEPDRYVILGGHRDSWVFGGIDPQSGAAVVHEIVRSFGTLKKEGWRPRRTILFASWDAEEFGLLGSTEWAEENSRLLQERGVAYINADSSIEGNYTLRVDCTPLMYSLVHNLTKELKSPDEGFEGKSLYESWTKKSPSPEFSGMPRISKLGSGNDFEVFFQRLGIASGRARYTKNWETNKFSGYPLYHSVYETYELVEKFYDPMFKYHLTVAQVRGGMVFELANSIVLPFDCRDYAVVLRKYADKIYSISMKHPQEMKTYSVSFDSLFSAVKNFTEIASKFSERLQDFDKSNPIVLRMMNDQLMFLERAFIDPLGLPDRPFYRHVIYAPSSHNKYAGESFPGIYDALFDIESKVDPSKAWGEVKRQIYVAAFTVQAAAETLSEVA

As for `CC(=O)O[C@@]12CO[C@@H]1C[C@H](O)[C@@]1(C)C(=O)[C@H](O)C3=C(C)[C@@H](OC(=O)[C@H](O)[C@@H](NC(=O)OC(C)(C)C)c4ccccc4)C[C@@](O)([C@@H](OC(=O)c4ccccc4)[C@H]21)C3(C)C` [Taxotere, docetaxel], the “survival advantage over control group (mitoxantrone and prednisone)” value in series [1] is on record as “approximately 2.5 months”. For the molecule “mCmGmGmAfCfCmGdAdAfCmAmAmGmGmCfCfU-s-dGmAfCfUfUfCfUmAfUmAfCfUdAmAmGmCmCmUmAfCmGfUmUmCmCmG-3T (mCmGmGmAfCfCmGdAdAfCmAmAmGmGmCfCfU*dGmAfCfUfUfCfUmAfUmAfCfUdAmAmGmCmCmUmAfCmGfUmUmCmCmG[invdT]) [ARC1725, ribo-free version based on ARC591]”, the “half life (T1/2) in plasma” value in series [2] stood at 11 h. In addition, the “activity in the NAALADase inhibition assay” value with PSMA NAALADase activity is on record as “retained full activity”.

B1: GGGAGGACGAUGCGGACCGAAAAAGACCUGAfCfIUfCfUAfUAfCfUAAGfUfCfUAf CGfTUIJfCfCfCAGAfCGAfCfUfCGfCfCfCGA (nucleic acid)
chain: GGGAGGACGAUGCGGACCGAAAAAGACCUGACUUCUAUACUAAGUCUACGUUCCCAGACGACUCGCCCGA
modifications: 2'-fluoro at CU, RNA at AG, backbone not given here
notes: existing PSMA specific aptamer of rRfY composition from U.S. Ser. No. 09/978,969
Take B1: the “binding to PC-3 (PSMA−) cells” value in the series on PC-3 cells (PSMA−) is recorded as “not to PC-3 (PSMA−) cells”. Moreover, the “binding to LNCaP (PSMA+) cells” value in the series with LNCaP cells (PSMA+) is reported as “binding to LNCaP (PSMA+) cells”.
